According to patent US5438050A, “Indolocarbazole derivatives, processes for their preparation and compositions containing them” (Godecke Aktiengesellschaft, priority 1988, dated 1995):
pIC50: −log10 of the molar value.

Biological target: protein kinase C
Test: enzyme assay of protein kinase C activated with phosphatidylserine and diacylglycerol (according to EP-OS 0,255,126)
Assay type: biochemical
Settings: read-out: 50% inhibition at a concentration of
Description: The compounds according to the invention are potent inhibitors of protein kinases, such as protein kinase C. […] The experiment was carried out according to EP-OS 0,255,126 (inhibition of protein kinase C). Admittedly, indolocarbazoles have already been described as inhibitors of protein kinase C (J Antibiotic 30:275, 1977; Biochem Biophys Res Commun 135:397, 1986). However, it is thereby mainly a question of indolocarbazole-N,N-glycosidesof microbial or semisynthetic origin.

Question: “2 (and 10)-Chloro-12-ethyl-6,7,12,13-tetrahydro-5-oxo-5H-indolo[2,3-a]pyrrolo[3,4-c]carbazole [Example 3.a]” was tested. Which pIC50 did it give?
Answer: 6.51
